PubChem BioAssay (NCI)
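In this assay, cells in 96-well plates receive the compound at five concentrations for 48 hours. Endpoints are linearly interpolated between the surrounding concentrations. At the GI50, growth is halved. TGI marks complete inhibition of growth.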

Assays:
Test in all cases: growth of human tumour cells (NCI), 48 h
A498 renal = tested on: A498 renal
HCT-15 colon = tested on: HCT-15 colon
EKVX NSCLC = tested on: EKVX NSCLC
RXF 393 renal = tested on: RXF 393 renal
SR leukemia = tested on: SR leukemia
M14 melanoma = tested on: M14 melanoma
MOLT-4 leukemia = tested on: MOLT-4 leukemia
NCI-H23 lung = tested on: NCI-H23 lung
HOP-62 NSCLC = tested on: HOP-62 NSCLC
HT29 colon = tested on: HT29 colon
SW-620 colon = tested on: SW-620 colon
COLO 205 colon = tested on: COLO 205 colon
HOP-92 NSCLC = tested on: HOP-92 NSCLC
SK-MEL-28 melanoma = tested on: SK-MEL-28 melanoma
RPMI-8226 leukemia = tested on: RPMI-8226 leukemia
SN12C renal = tested on: SN12C renal
SF-295 CNS = tested on: SF-295 CNS
HCT-116 colon = tested on: HCT-116 colon
UACC-62 melanoma = tested on: UACC-62 melanoma
MDA-MB-435 = tested on: MDA-MB-435
OVCAR-8 ovarian = tested on: OVCAR-8 ovarian
U251 CNS = tested on: U251 CNS
OVCAR-5 ovarian = tested on: OVCAR-5 ovarian
HL-60(TB) leukemia = tested on: HL-60(TB) leukemia
SNB-19 CNS = tested on: SNB-19 CNS
HS 578T breast = tested on: HS 578T breast

Molecule `Clc1ccc(-c2nc(-c3ccccc3)cn3ccnc23)cc1` has a GI50 (A498 renal) of 0.836 µM, a TGI (A498 renal) of 16.1 µM and a GI50 (HCT-15 colon) of 1.8 µM. The TGI (HCT-15 colon) was 18 µM, the GI50 (EKVX NSCLC) was 10 µM and the TGI (EKVX NSCLC) was 48.8 µM. For the same molecule, the GI50 (RXF 393 renal) was 2.72 µM, the TGI (RXF 393 renal) was 28.6 µM and the GI50 (SR leukemia) was 0.627 µM. For the same molecule, the TGI (SR leukemia) was > 100 µM, the GI50 (M14 melanoma) was 10.6 µM and the TGI (M14 melanoma) was 27.4 µM. The GI50 (MOLT-4 leukemia) was 5.89 µM, the TGI (MOLT-4 leukemia) was > 100 µM and the GI50 (NCI-H23 lung) was 12.5 µM. The TGI (NCI-H23 lung) was 36.4 µM, the GI50 (HOP-62 NSCLC) was 16.1 µM and the TGI (HOP-62 NSCLC) was 52.5 µM. For the same molecule, the GI50 (HT29 colon) was 7.45 µM, the TGI (HT29 colon) was 56.7 µM and the GI50 (SW-620 colon) was 4.75 µM. For the same molecule, the TGI (SW-620 colon) was 41.1 µM, the GI50 (COLO 205 colon) was 18.6 µM and the TGI (COLO 205 colon) was > 100 µM. For the same molecule, the GI50 (HOP-92 NSCLC) was 11.1 µM, the TGI (HOP-92 NSCLC) was 32.7 µM and the GI50 (SK-MEL-28 melanoma) was 14.9 µM. The TGI (SK-MEL-28 melanoma) was 58.3 µM, the GI50 (RPMI-8226 leukemia) was 3.44 µM and the TGI (RPMI-8226 leukemia) was 31.2 µM. The GI50 (SN12C renal) was 21.3 µM, the TGI (SN12C renal) was > 100 µM and the GI50 (SF-295 CNS) was 3.1 µM. For the same molecule, the TGI (SF-295 CNS) was 16.7 µM, the GI50 (HCT-116 colon) was 6.39 µM and the TGI (HCT-116 colon) was 21.5 µM. The GI50 (UACC-62 melanoma) was 17.7 µM, the TGI (UACC-62 melanoma) was 70 µM and the GI50 (MDA-MB-435) was 1.43 µM. The TGI (MDA-MB-435) was 7.52 µM, the GI50 (OVCAR-8 ovarian) was 20.6 µM and the TGI (OVCAR-8 ovarian) was 57.2 µM. For the same molecule, the GI50 (U251 CNS) was 6.61 µM, the TGI (U251 CNS) was 19.9 µM and the GI50 (OVCAR-5 ovarian) was 15.7 µM. The TGI (OVCAR-5 ovarian) was 44.7 µM, the GI50 (HL-60(TB) leukemia) was 5.05 µM and the TGI (HL-60(TB) leukemia) was > 100 µM. For the same molecule, the GI50 (SNB-19 CNS) was 25.6 µM, the TGI (SNB-19 CNS) was > 100 µM and the TGI (HS 578T breast) was 17 µM.
